Where two headings read alike, the source gives them in different places.
Experiments:
[1] = system: human TERT expression (hTERT mRNA); assay: Quantitative real-time RT-PCR of hTERT mRNA expression (Ct, transcripts) in compound-treated cells; assay type: cell-based
Text: Telomerase is a ribonucleoprotein complex composed of the catalytic protein subunit (human telomerase reverse transcriptase or hTERT) and the RNA template. hTERT expression level can be measured by PCR.
Briefly, amplification of the target sequence is monitored per PCR cycle by detecting the fluorescence signal emitted by an internal probe that is degraded by the 5′ nuclease activity of the Taq polymerase. The emission signal accumulates in each sample, and the Ct required to reach a given fluorescence threshold is determined (Ct stands for Cycle Threshold and is a measure of the number of PCR cycles that are required to amplify a target—thus, a lower Ct score means that there is more abundant hTERT mRNA). Thus, the Ct value of a sample inversely correlates to the quantity of the starting cDNA which correlates to the number of mRNA transcripts. Using the cDNA of known quantity, a standard curve can be generated and used to determine the starting amount of mRNA transcripts based on the […] of each sample.
Quantitative real-time PCR can be done on cDNA from test compound-treated and nontreated cells by use of a ABI Prism 7900 Sequence Detection System (PE Applied Biosystems, Foster City, CA) following the Assays-on-Demand protocol (PE Applied Biosystems, Foster City, CA). Quantitative data can be analyzed using the Sequence Detection System software version 2.1 (PE Applied Biosystems).
The following compounds were tested in assays designed to identify compounds that enhance human TERT expression.

viable cells in culture = assay: Cell viability assay (CellTiter-Glo Luminescent Cell Viability Assay, ATP quantitation, percent of vehicle control)

| SMILES | Average Number of hTERT Transcripts ([1]; quantitative real-time RT-PCR) | Average Cell Viability after 24 Hours (% DMSO) (viable cells in culture) | Average Number of hTERT Transcripts [1] |
| --- | --- | --- | --- |
| COc1cc(C(=O)Nc2ccc(-c3nc4ccccc4[nH]3)cc2)ccc1OC(C)=O [compound 1330] | 3.59 | 97.84 | – |
| Cc1ccc(NS(=O)(=O)c2ccc(NC(=O)C(c3ccccc3)c3ccccc3)cc2)cc1C [compound 1433] | – | 75.77 | 45.43 |
| CCOc1ccc(NC(=O)c2c(NC(=O)c3ccncc3)sc3c2CCC(C(C)(C)C)C3)cc1 (stereo not shown) [compound 1232] | 23.68 | 112.57 | – |
| CCCC1=NN(c2ccc(Cl)cc2)C(=O)C1 [compound 1122] | 13.40 | 66.57 | – |
| O=C(CCc1ccccc1)NC(c1ccc([N+](=O)[O-])cc1)c1c(O)ccc2ccccc12 (stereo not shown) [compound 1393] | – | 62.25 | 23.22 |
| O=C(N/N=C/C=C/c1ccccc1)c1ccccc1O [compound 1268] | 14.70 | 80.84 | – |
| O=C(O)C1C2CCC(O2)C1C(=O)NCc1ccco1 (stereo not shown) [compound 1222] | 15.04 | 102.27 | – |
| O=C(COc1ccccc1)Nc1ccc(C(=O)NCC2COc3ccccc3O2)cc1 (stereo not shown) [compound 1553] | – | 77.33 | 23.58 |
| Cc1nc(-n2nc(C)c(CC(=O)N3CCCCC3)c2O)sc1C [compound 1126] | 75.66 | 95.13 | – |
| COC(=O)COc1ccc(NC(=O)c2ccc(F)cc2)cc1 [compound 1414] | – | 69.42 | 203.88 |
| CN(CC1CCCO1)S(=O)(=O)c1ccc(C(=O)Nc2nc(-c3ccccn3)cs2)cc1 (stereo not shown) [compound 1510] | – | 83.99 | 76.03 |
| O=c1c2c([nH]c3c(-c4ccc(Cl)cc4)cnn13)CCCC2 [compound 1159] | 5.22 | 55.24 | – |
| COc1ccc(-c2cc3ccccn3c2C)cc1 [compound 1322] | 20.10 | 81.69 | – |
| COc1cc(C2C(C(=O)c3ccc(C)o3)=C(O)C(=O)N2CCCN2CCOCC2)cc(OC)c1OC (stereo not shown) [compound 1403] | – | 95.26 | 9.95 |
| O=C(Nc1nc(-c2ccccn2)cs1)C1COc2ccccc2O1 (stereo not shown) [compound 1204] | 76.87 | 55.98 | – |
| CCCCNC(=O)c1cc(-c2ccc(F)cc2)on1 [compound 1181] | 24.74 | 85.44 | – |
| CC1CCc2c(sc(NC(=O)c3cccnc3)c2C(=O)Nc2cccc(Cl)c2)C1 (stereo not shown) [compound 1315] | 26.20 | 58.86 | – |
| COC(=O)CSc1nnc(NC(=O)c2ccc(Cl)cc2)s1 [compound 1302] | 41.43 | 70.75 | – |
| Cc1nn2c(=O)c(Cl)c(C)[nH]c2c1-c1ccccc1 [compound 1153] | 5.84 | 88.39 | – |
| Cc1ccc(-c2cc(=O)n3nc(C)c(-c4ccccc4)c3[nH]2)cc1 [compound 1151] | 164.58 | 77.04 | – |
| COC(=O)c1ccc(COC(=O)CCS(=O)(=O)c2ccc(C)cc2)cc1 [compound 1549] | – | 99.71 | 8.60 |
| COc1cccc(/C=N/NC(=O)C2CC2c2ccccc2)c1O (stereo not shown) [compound 1529] | – | 102.67 | 29.94 |
| CC(=O)C1=C(C)NC(SCC(=O)Nc2sc3c(c2C#N)CCCC3)=C(C#N)C1c1ccc(Cl)cc1 (stereo not shown) [compound 1434] | – | 72.00 | 25.17 |
| O=C(Nc1cc([N+](=O)[O-])ccc1O)c1cccc(F)c1 [compound 1334] | 31.04 | 75.50 | – |
| Cc1nn(-c2cc(N3CCN(S(=O)(=O)c4ccc(Cl)cc4)CC3)ccc2[N+](=O)[O-])c(=O)c2ccccc12 [compound 1407] | – | 109.75 | 3.38 |

| SMILES | Average Number of hTERT Transcripts ([1]; quantitative real-time RT-PCR) | Average Cell Viability after 24 Hours (% DMSO) (viable cells in culture) | Average Number of hTERT Transcripts [1] |
| --- | --- | --- | --- |
| CC(=O)NC(c1ccc(N(C)C)cc1)c1cc(Cl)c2cccnc2c1O (stereo not shown) [compound 1059] | 26.79 | 53.52 | – |
| CCOC(=O)c1sc(-n2nc(C)c(Cc3ccc(C)cc3)c2O)nc1C [compound 1130] | 31.93 | 70.45 | – |
| O=C(Nc1nc(-c2ccccn2)cs1)c1cccc(S(=O)(=O)N2CCCCC2)c1 [compound 1174] | 12.12 | 73.06 | – |
| COC(=O)c1sc(NC(=S)NCc2cccnc2)c(C(=O)OC)c1C [compound 1440] | – | 99.11 | 13.85 |
| O=C(N/N=C/c1cccc2cccnc12)c1ccc2c(c1)OCO2 [compound 1283] | 18.81 | 68.25 | – |
| O=C(NCCc1ccncc1)C(F)(F)F [compound 1356] | 5.18 | 101.39 | – |
| CC(=O)Oc1ccc2c(=O)c(Oc3ccc4ccccc4c3)c(C(F)(F)F)oc2c1 [compound 1444] | – | 64.02 | 16.54 |
| COc1ccc(C2=NN(c3nc4ccccc4s3)C(=O)C2)cc1 [compound 1107] | 67.06 | 98.68 | – |
| O=C(O)CC12CC3CC(C1)CC(CC(=O)O)(C3)C2 [compound 1355] | 4.95 | 95.78 | – |
| Cc1ccc(OCC(=O)N/N=C/c2c(C)nn(-c3ccccc3)c2O)c(C)c1 [compound 1483] | – | 81.33 | 5.19 |
| CC(C)C(=O)NC(c1ccc(C(C)C)cc1)c1ccc2ccccc2c1O (stereo not shown) [compound 1377] | – | 67.09 | 10.23 |
| O=C(CN1C(C(=O)c2ccccc2)=C(N2CCCCC2)c2ccccc2S1(=O)=O)c1ccccc1 [compound 1211] | 52.31 | 81.77 | – |
| Brc1cccc(OCCCN2CCCCC2)c1 [compound 1380] | – | 104.34 | 5.98 |
| Cc1ccnc(NC(c2cccc([N+](=O)[O-])c2)c2ccc3ccc(C)nc3c2O)c1 (stereo not shown) [compound 1084] | 11.54 | 65.08 | – |
| O=C(N/N=C/c1ccccn1)c1ccccc1 [compound 1265] | 4.42 | 81.94 | – |
| NNc1ncnc2sc3c(c12)CCCC3 [compound 1455] | – | 84.96 | 130.06 |
| CCOC(=O)C(=O)Nc1ccc(S(=O)(=O)N2CC(C)CC(C)C2)cc1 (stereo not shown) [compound 1445] | – | 87.20 | 6.33 |
| COC(=O)C1=C(C)Nc2nnnn2C1c1ccccc1OC (stereo not shown) [compound 1321] | 22.30 | 124.73 | – |
| CCC(O)c1nc2ccccc2n1CCOc1cccc(OC)c1 (stereo not shown) [compound 1253] | 3.09 | 91.13 | – |
| O=C(O)c1c(-c2ccccc2)c2oc3ccccc3c2[nH]c1=O [compound 1238] | 5.16 | 89.10 | – |
| O=C(Oc1ccc([N+](=O)[O-])cc1)c1cc(S(=O)(=O)N2CCOCC2)cs1 [compound 1397] | – | 96.05 | 5.00 |
| O=C(CC(NC1CCCCC1)C(=O)O)Nc1cccc([N+](=O)[O-])c1 (stereo not shown) [compound 1438] | – | 97.89 | 8.29 |
| Oc1ccc2nc(N3CCOCC3)sc2c1 [compound 1252] | 4.21 | 96.63 | – |
| CCOC(=O)c1cc(NC(=O)N(C(C)C)C(C)C)c(C)nc1C [compound 1342] | 4.48 | 103.16 | – |
| C=CCN(CC=C)CCCOc1ccccc1 [compound 1550] | – | 96.87 | 12.90 |

From patent publication US12404304B1, “Telomerase reverse transcriptase (TERT) expression enhancing compounds and methods for using the same” (Sierra Sciences, LLC, priority 2007, dated 2025)
